Common to all, as to assay type: cell-based
One experiment concerns the target Melanocortin receptor 4 (Homo sapiens, UniProt P32245). Briefly: Displacement of [125I]-NDP-alpha-MSH from human MC4R expressed in CHO cells by Topcount beta counter analysis. (In general: Displacement assays read how much labelled ligand stays bound in the presence of the test substance.)
Experiment [1] concerns the target Melanocyte-stimulating hormone receptor (Homo sapiens, UniProt Q01726). Briefly: Displacement of [125I]-NDP-alpha-MSH from human MC1R expressed in CHO cells by Topcount beta counter analysis. The note with it: read-out: pKi (converted).
The target in the next experiment is Melanocortin receptor 3 (Homo sapiens, UniProt P41968). As to the kind of experiment: Displacement of [125I]-NDP-alpha-MSH from human MC3R expressed in HEK293 cells by Topcount beta counter analysis. Particulars: read-out: pKi (converted).
Melanocortin receptor 3, sequence (P41968 whole entry): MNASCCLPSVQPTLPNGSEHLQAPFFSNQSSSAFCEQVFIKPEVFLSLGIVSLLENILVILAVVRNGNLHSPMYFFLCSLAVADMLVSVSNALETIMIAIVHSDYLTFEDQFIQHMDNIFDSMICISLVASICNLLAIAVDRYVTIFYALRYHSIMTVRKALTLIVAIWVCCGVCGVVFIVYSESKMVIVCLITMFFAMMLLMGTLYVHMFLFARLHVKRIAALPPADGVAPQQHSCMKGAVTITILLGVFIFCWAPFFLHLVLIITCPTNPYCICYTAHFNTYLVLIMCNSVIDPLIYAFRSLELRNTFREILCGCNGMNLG
For another experiment, the target named is Melanocortin receptor 5 (Homo sapiens, UniProt P33032). Briefly: Displacement of [125I]-NDP-alpha-MSH from human MC5R expressed in CHO cells by Topcount beta counter analysis. Particulars: read-out: pKi (converted).
Melanocortin receptor 5, sequence (P33032 whole entry): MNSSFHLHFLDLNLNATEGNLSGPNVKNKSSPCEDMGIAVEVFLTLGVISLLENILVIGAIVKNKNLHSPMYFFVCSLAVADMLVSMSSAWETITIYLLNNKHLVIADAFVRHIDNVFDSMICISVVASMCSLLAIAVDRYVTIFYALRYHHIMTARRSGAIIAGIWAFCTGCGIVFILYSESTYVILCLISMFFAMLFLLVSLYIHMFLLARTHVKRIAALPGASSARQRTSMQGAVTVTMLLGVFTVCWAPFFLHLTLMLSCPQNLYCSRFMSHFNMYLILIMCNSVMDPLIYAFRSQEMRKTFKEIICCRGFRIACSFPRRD

Where a SMILES comes first, the peptide text is derived from it. Bridges are numbered along the chain shown (N, C = ends). The star is where a group is joined. Carbamoyl = NC(=O)*

Melanocortin receptor 4, sequence (P32245 whole entry): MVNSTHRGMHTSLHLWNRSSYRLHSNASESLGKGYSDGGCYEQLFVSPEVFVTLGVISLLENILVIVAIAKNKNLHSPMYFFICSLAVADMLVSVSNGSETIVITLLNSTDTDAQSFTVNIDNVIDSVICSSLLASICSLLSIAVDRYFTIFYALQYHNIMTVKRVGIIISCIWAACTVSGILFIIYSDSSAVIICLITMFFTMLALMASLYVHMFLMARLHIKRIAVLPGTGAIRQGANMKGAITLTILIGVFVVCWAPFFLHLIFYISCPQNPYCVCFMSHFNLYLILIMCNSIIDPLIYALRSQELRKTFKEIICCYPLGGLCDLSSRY
Melanocyte-stimulating hormone receptor, sequence (Q01726 whole entry): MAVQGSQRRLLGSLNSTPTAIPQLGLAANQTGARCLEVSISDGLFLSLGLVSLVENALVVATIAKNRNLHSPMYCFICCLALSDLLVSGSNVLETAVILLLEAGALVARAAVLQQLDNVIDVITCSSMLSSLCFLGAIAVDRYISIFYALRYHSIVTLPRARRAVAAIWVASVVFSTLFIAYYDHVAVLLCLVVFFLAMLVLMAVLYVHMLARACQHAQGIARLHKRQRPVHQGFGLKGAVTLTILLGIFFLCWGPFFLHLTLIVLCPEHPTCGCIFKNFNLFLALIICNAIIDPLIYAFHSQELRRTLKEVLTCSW

Turning to `CC(C)C[C@H](NC(=O)[C@H](CCCCN)NC(=O)[C@H](Cc1ccccc1)NC(=O)[C@H](CCC(N)=O)NC(=O)[C@@H]1CSSC[C@H](NC(=O)[C@@H](Cc2ccc(O)cc2)NC(=O)[C@H](Cc2c[nH]cn2)NC(=O)[C@H](Cc2ccccc2)NC(=O)[C@@H](N)CC(C)C)C(=O)N[C@@H](CCC(N)=O)C(=O)N[C@@H](CCCCN)C(=O)N[C@@H](CCC(N)=O)C(=O)N[C@@H](CCCCN)C(=O)N2CCC[C@H]2C(=O)N2CCC[C@H]2C(=O)NCC(=O)N[C@@H](Cc2ccccc2)C(=O)N[C@@H](CCCCN)C(=O)NCC(=O)N[C@@H](CCCCN)C(=O)N[C@@H](Cc2ccccc2)C(=O)N1)C(=O)N[C@@H](CCCNC(=N)N)C(=O)N1CCC[C@H]1C(=O)N1CCC[C@H]1C(=O)O`, the Ki on Melanocortin receptor 4 (read-out: pKi (converted)) was 6.92 nM; in experiment [1], 85.1 nM; on Melanocortin receptor 3, 30.9 nM; on Melanocortin receptor 5 it was 25.7 nM.

With `CC(C)C[C@H](NC(=O)[C@H](CCC(=O)O)NC(=O)[C@H](Cc1ccccc1)NC(=O)[C@H](CCC(N)=O)NC(=O)[C@H](CCC(N)=O)N1C(=O)[C@@H](NC(=O)[C@H](CCCCN)NC(=O)CNC(=O)[C@H](CCCCN)NC(=O)[C@H](Cc2ccccc2)NC(=O)CNC(=O)[C@@H]2CCCN2C(=O)[C@@H]2CCCN2C(=O)[C@H](CCCCN)NC(=O)[C@H](CCC(N)=O)NC(=O)[C@H](CCCCN)NC(=O)[C@H](CCC(N)=O)NC(=O)[C@H](CCC(N)=O)NC(=O)[C@H](Cc2ccc(O)cc2)NC(=O)[C@H](Cc2c[nH]cn2)NC(=O)[C@H](Cc2ccccc2)NC(=O)[C@@H](N)CC(C)C)Cc2ccccc21)C(=O)N[C@@H](CCCNC(=N)N)C(=O)N1CCC[C@H]1C(=O)N1CCC[C@H]1C(=O)O`, the figures for the Ki at Melanocortin receptor 4 (read-out: Ki) and at Melanocortin receptor 4 (read-out: pKi (converted)) were 91 nM and 89.1 nM, respectively.

In the case of `CC(C)C[C@H](NC(=O)[C@H](CCCCN)NC(=O)[C@H](Cc1ccccc1)NC(=O)[C@H](CCC(N)=O)NC(=O)[C@@H]1CSSC[C@H](NC(=O)[C@H](CCC(N)=O)NC(=O)[C@H](C)NC(=O)[C@H](CCC(N)=O)NC(=O)[C@H](C)NC(=O)[C@H](Cc2ccc(O)cc2)NC(=O)[C@H](Cc2c[nH]cn2)NC(=O)[C@H](Cc2ccccc2)NC(=O)[C@@H](N)CC(C)C)C(=O)N2CCC[C@H]2C(=O)N2CCC[C@H]2C(=O)NCC(=O)N[C@@H](Cc2ccccc2)C(=O)N[C@@H](CCCCN)C(=O)NCC(=O)N[C@@H](CCCCN)C(=O)N[C@@H](Cc2ccccc2)C(=O)N1)C(=O)N[C@@H](CCCNC(=N)N)C(=O)N1CCC[C@H]1C(=O)N1CCC[C@H]1C(=O)O` (H-LFHYAQAQCPPGFKGKFCQFKLRPP-OH; disulfide 9-18), the Ki at Melanocortin receptor 4 (read-out: pKi (converted)) is 245 nM.

For `CC(C)C[C@H](NC(=O)[C@H](CCCCN)NC(=O)[C@H](Cc1ccccc1)NC(=O)[C@H](CCC(N)=O)NC(=O)[C@@H]1CSSC[C@H](NC(=O)[C@H](CCC(N)=O)NC(=O)[C@H](C)NC(=O)[C@H](Cc2ccc(O)cc2)NC(=O)[C@H](Cc2c[nH]cn2)NC(=O)[C@H](Cc2ccccc2)NC(=O)[C@@H](N)CC(C)C)C(=O)N[C@@H](CCC(N)=O)C(=O)N[C@@H](C)C(=O)N2CCC[C@H]2C(=O)N2CCC[C@H]2C(=O)NCC(=O)N[C@@H](Cc2ccccc2)C(=O)N[C@@H](CCCCN)C(=O)NCC(=O)N[C@@H](CCCCN)C(=O)N[C@@H](Cc2ccccc2)C(=O)N1)C(=O)N[C@@H](CCCNC(=N)N)C(=O)N1CCC[C@H]1C(=O)N1CCC[C@H]1C(=O)O` (H-LFHYAQCQAPPGFKGKFCQFKLRPP-OH; disulfide 7-18), at Melanocortin receptor 4 (read-out: pKi (converted)), the Ki was 245 nM.

Regarding `CC(C)C[C@H](NC(=O)[C@H](CCCCN)NC(=O)[C@H](Cc1ccccc1)NC(=O)[C@H](CCC(N)=O)NC(=O)[C@H](CSC(N)=O)NC(=O)[C@H](Cc1ccccc1)NC(=O)[C@H](CCCCN)NC(=O)CNC(=O)[C@H](CCCCN)NC(=O)[C@H](Cc1ccccc1)NC(=O)CNC(=O)[C@@H]1CCCN1C(=O)[C@@H]1CCCN1C(=O)[C@H](CCCCN)NC(=O)[C@H](CCC(N)=O)NC(=O)[C@H](CCCCN)NC(=O)[C@H](CCC(N)=O)NC(=O)[C@H](CSC(N)=O)NC(=O)[C@H](Cc1ccc(O)cc1)NC(=O)[C@H](Cc1cnc[nH]1)NC(=O)[C@H](Cc1ccccc1)NC(=O)[C@@H](N)CC(C)C)C(=O)N[C@@H](CCCNC(=N)N)C(=O)N1CCC[C@H]1C(=O)N1CCC[C@H]1C(=O)O` (H-LFHYC(Carbamoyl)QKQKPPGFKGKFC(Carbamoyl)QFKLRPP-OH), the Ki is 12.6 nM on Melanocortin receptor 4 (read-out: pKi (converted)), 110 nM in experiment [1], 37.2 nM at Melanocortin receptor 3 and 135 nM on Melanocortin receptor 5.

Regarding `CC(C)C[C@H](NC(=O)[C@H](CCCCN)NC(=O)[C@H](Cc1ccccc1)NC(=O)[C@H](CCC(N)=O)NC(=O)[C@@H]1CSSC[C@H](NC(=O)[C@H](Cc2ccc(O)cc2)NC(=O)[C@H](Cc2c[nH]cn2)NC(=O)[C@H](Cc2ccccc2)NC(=O)[C@@H](N)CC(C)C)C(=O)N[C@@H](CCC(N)=O)C(=O)N[C@@H](C)C(=O)N[C@@H](CCC(N)=O)C(=O)N[C@@H](C)C(=O)N2CCC[C@H]2C(=O)N2CCC[C@H]2C(=O)NCC(=O)N[C@@H](Cc2ccccc2)C(=O)N[C@@H](CCCCN)C(=O)NCC(=O)N[C@@H](CCCCN)C(=O)N[C@@H](Cc2ccccc2)C(=O)N1)C(=O)N[C@@H](CCCNC(=N)N)C(=O)N1CCC[C@H]1C(=O)N1CCC[C@H]1C(=O)O` (H-LFHYCQAQAPPGFKGKFCQFKLRPP-OH; disulfide 5-18), the Ki at Melanocortin receptor 4 (read-out: pKi (converted)) was 117 nM; in experiment [1], 912 nM; on Melanocortin receptor 3, 170 nM; at Melanocortin receptor 5 it was 195 nM.

Consider Ac-LFHYQQKQKPPGFKGKFQQFKLRPP-OH, for which the figures for the Ki at Melanocortin receptor 4 (read-out: Ki) and at Melanocortin receptor 4 (read-out: pKi (converted)) were 138 nM and 135 nM, respectively.

As to H-AFHYQQKQKPPGFKGKFQQFKLRPP-OH, the Ki on Melanocortin receptor 4 (read-out: Ki) was 125 nM; on Melanocortin receptor 4 (read-out: pKi (converted)), 123 nM.

In the case of H-FHYQQKQKPPGFKGKFQQFKLRPP-OH, the Ki at Melanocortin receptor 4 (read-out: Ki) was 334 nM; at Melanocortin receptor 4 (read-out: pKi (converted)), 288 nM.

For H-HYQQKQKPPGFKGKFQQFKLRPP-OH, the Ki is 2200 nM on Melanocortin receptor 4 (read-out: Ki) and 2040 nM at Melanocortin receptor 4 (read-out: pKi (converted)).

With H-LAHYQQKQKPPGFKGKFQQFKLRPP-OH, on Melanocortin receptor 4 (read-out: Ki), the Ki came to 236 nM.

H-LFHAQQKQKPPGFKGKFQQFKLRPP-OH: at Melanocortin receptor 4 (read-out: Ki), the Ki came out at 111 nM.

With H-LFHYQQKQKPPGFAGKFQQFKLRPP-OH, the Ki on Melanocortin receptor 4 (read-out: Ki) was 54 nM.

For H-LFHYQQKQKPPGFEGKFQQFKLRPP-OH, the figures for the Ki on Melanocortin receptor 4 (read-out: Ki) and at Melanocortin receptor 4 (read-out: pKi (converted)) were 262 nM and 257 nM, respectively.

Consider H-LFHYQQKQKPPGFKGAFQQFKLRPP-OH, for which the Ki on Melanocortin receptor 4 (read-out: Ki) was 75 nM; at Melanocortin receptor 4 (read-out: pKi (converted)) it was 72.4 nM.

Take H-LFHYQQKQKPPGFKGEFQQFKLRPP-OH: the Ki at Melanocortin receptor 4 (read-out: Ki) stood at 203 nM.

For H-LFHYQQKQKPPGFKGKFQQF-OH, the Ki at Melanocortin receptor 4 (read-out: Ki) was 55 nM; on Melanocortin receptor 4 (read-out: pKi (converted)) it was 53.7 nM.

Take H-LFHYQQKQKPPGFKGKFQQFKL-OH: the Ki at Melanocortin receptor 4 (read-out: Ki) is 29 nM; on Melanocortin receptor 4 (read-out: pKi (converted)) it was 27.5 nM.

For the compound H-LFHYQQKQKPPGFKGKFQQFKLR-OH, the Ki was 14 nM on Melanocortin receptor 4 (read-out: Ki) and 12.3 nM at Melanocortin receptor 4 (read-out: pKi (converted)).

As to H-LFHYQQKQKPPGFKGKFQQFKLRPP-NH2, the Ki on Melanocortin receptor 4 (read-out: Ki) was 9 nM; on Melanocortin receptor 4 (read-out: pKi (converted)), 8.13 nM.

With H-YQQKQKPPGFKGKFQQFKLRPP-OH, the Ki on Melanocortin receptor 4 (read-out: Ki) was 1440 nM; on Melanocortin receptor 4 (read-out: pKi (converted)), 1320 nM.
